In PMC11284788, “NN1213 – A Potent, Long-Acting, and Selective Analog of Human Amylin” (Journal of Medicinal Chemistry, 2024):
Read-outs that look alike come from different tables or passages of the source. Numbered stars: 1 amine (or outer) side, 2 acyl side, 3 side chain; on linkers, the order of the positions; unused ones are H or OH. Bridge positions count the residues as written; N and C are the ends. Side chains are listed from the residue outwards. Peptide text beside a SMILES is read from it. * marks the point of attachment. C20 diacid = O=C(O)CCCCCCCCCCCCCCCCCCC(=O)*; γGlu = O=C(O)[C@H](CCC(=O)[*:2])N[*:1]

How the values were obtained:
hAMY3R = target: T1, hAMY3R (Homo sapiens, UniProt O60896+P30988); experiment: scintillation proximity binding assay, hAMY3R membranes; parameters: expressed in transfected cells; host or cells: BHK tk-ts 13, transient co-transfection; membranes for the SPA, whole cells for the species-specific assays; conditions: for ratio hCTR/hAMY3R: ratio of binding IC50 values
T1 sequence (P30988 25-474): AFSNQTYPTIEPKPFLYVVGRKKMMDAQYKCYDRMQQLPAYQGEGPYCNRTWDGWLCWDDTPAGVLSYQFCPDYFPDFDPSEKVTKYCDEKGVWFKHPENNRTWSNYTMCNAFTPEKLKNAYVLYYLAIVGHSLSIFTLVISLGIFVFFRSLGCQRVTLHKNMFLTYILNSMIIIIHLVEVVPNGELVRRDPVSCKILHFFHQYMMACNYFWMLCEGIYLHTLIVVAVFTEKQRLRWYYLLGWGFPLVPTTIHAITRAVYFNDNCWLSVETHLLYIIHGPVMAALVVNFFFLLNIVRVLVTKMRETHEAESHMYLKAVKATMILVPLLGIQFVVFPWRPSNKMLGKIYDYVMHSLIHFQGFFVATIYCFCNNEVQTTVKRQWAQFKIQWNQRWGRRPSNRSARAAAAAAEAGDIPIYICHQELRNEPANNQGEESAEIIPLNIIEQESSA
T1 sequence (O60896 24-148 partner): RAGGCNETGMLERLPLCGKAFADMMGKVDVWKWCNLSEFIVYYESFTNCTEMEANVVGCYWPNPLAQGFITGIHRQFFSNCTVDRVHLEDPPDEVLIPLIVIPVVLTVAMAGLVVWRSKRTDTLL
Experimental: The apparent binding affinities were determined using a scintillation proximity assay with beads from PerkinElmer and cell membranes containing the AMY3R or CTRs. […] Membranes were harvested and membranes were prepared and kept at −80 °C until use. The assay was performed in a 384-well Optiplate (PerkinElmer). Membranes were mixed with scintillation proximity assay beads in a 1:1 ratio. […] Samples were analyzed on a TopCounter (Packard). The IC50 values were calculated using GraphPad Prism. See Supporting Information S7: SAR Screening Assay Methods (Binding Assays (Human and Rat)) for more information.
Binding Assays (Human and Rat). Brief descriptions of the methods used to determine binding affinities for SAR analysis are described below. Curves and IC50 values were plotted and calculated in GraphPad Prism using nonlinear regression (one site binding competition analysis), with pIC50 values […]
values were used to calculate the binding affinity ratios in order to express the selectivity of compounds for the AMY3R versus the CTR.
CTR Binding Assay. The binding assay was performed using scintillation proximity assay (SPA) beads (RPNQ0001) from PerkinElmer and cell membranes containing either the hCTR or rCTR. BHK […]
(§1) Membranes were prepared in the following way: the cells were rinsed with PBS and incubated with Versene for approximately 5 min before harvesting. The cells were flushed with PBS and the cell-suspension was centrifuged for 5 min at 1000 rpm. Cells were homogenized (Ultra Turrax) in a buffer […]
containing 20 mM Na-HEPES and 0.1 mM EDTA (pH 7.4, buffer 2). The resulting pellet was re-suspended in buffer 2 and protein concentration was measured (BCA protein assay, Pierce). The homogenate was kept cold during the whole procedure. The membranes were stored at –80 °C until […]
The binding assay was performed in a 384-well Optiplate (PerkinElmer) in a total volume of 40 μL.
Membranes were mixed with SPA beads in a 1:1 ratio. […]
mg/well. Test compounds were dissolved in DMSO and further diluted in assay buffer (50 mM HEPES, pH 7.4, 1 mM CaCl2, 5 mM MgCl2, 0.1% ovalbumin, and 0.02% Tween-20).
Calcitonin (NEX422 PerkinElmer) was dissolved in assay buffer and added to the Optiplate at a final […]
prior to centrifugation (1500 rpm, 10 min). Samples were analyzed on TopCounter (Packard).
AMY3R Binding Assay. The binding assay was performed using SPA beads (RPNQ0001) from PerkinElmer and cell membranes containing either the hAMY3R or rAMY3R. BHK tk-ts 13 cells were […]
as §1, with “and cultured as described above. Membranes” for “Membranes”, “buffer containing 20 mM Na-HEPES and 10 mM EDTA (pH 7.4), and” for “buffer”
The resulting pellet was re-suspended, homogenized, and
7.4, buffer 2). The resulting pellet was re-suspended in buffer 2 and protein concentration was measured (BCA protein assay, Pierce). The homogenate was kept cold during the whole procedure.
The membranes were stored at –80 °C until use.
Membranes were mixed with SPA beads in a 1:1 ratio. The final concentration of SPA beads was 0.05 mg/well. Test compounds were dissolved in DMSO and further diluted in assay buffer (50 mM […]
rAMY (NEX448 PerkinElmer) was dissolved in assay buffer and added to the Optiplate at a final

[1] = HMWP content by size-exclusion chromatography; type: physicochemical; conditions: covalent dimers and polymers prior to fibril formation testing, SEC, % of total absorbance area at 215 nm
Outline: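 Amylin analogs analysed before fibril-formation testing by isocratic SEC in 0.5 M NaCl, 10 mM sodium dihydrogen phosphate, 5 mM ortho-phosphoric acid, 50% (v/v) 2-propanol. HMWP (covalent dimers/polymers) given as peak absorbance area percentage of total, assuming equal extinction coefficients for HMWP and main peak.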

[2] = SPA binding assay, Tables S13 and S15
[3] = SPA, BHK cell membranes, 125I-rat amylin, 120 min 25 °C, read-out: hAMY3R IC50

Row | hAMY3R pIC50 (hAMY3R; [2]) | IC50 (hAMY3R; [3]) [nM] | ratio hCTR/hAMY3R (hAMY3R) | HMWP ([1]; analogs 1–9 (pH 7.5 series)) [%] | IC50 (hAMY3R; SPA binding assay, Tables S13 and S15, read-out: hAMY3R pIC50 (converted)) [nM] | HMWP ([1]; analogs 10–21 (pH 4.0 series)) [%] | SMILES
1 | 8.95 | 1.12 | 10 | 3 |  |  | CC(C)C[C@H](NC(=O)[C@H](CCCNC(=N)N)NC(=O)[C@H](CCC(N)=O)NC(=O)[C@@H](NC(=O)[C@H](C)NC(=O)[C@@H]1CSSC[C@H](NC(=O)[C@@H](N)CCCCNC(=O)CC[C@H](NC(=O)CC[C@H](NC(=O)CCCCCCCCCCCCCCCCCCC(=O)O)C(=O)O)C(=O)O)C(=O)N[C@@H](CC(N)=O)C(=O)N[C@@H]([C@@H](C)O)C(=O)N[C@@H](C)C(=O)N[C@@H]([C@@H](C)O)C(=O)N1)[C@@H](C)O)C(=O)N[C@@H](C)C(=O)N[C@@H](CC(=O)O)C(=O)N[C@@H](Cc1ccccc1)C(=O)N[C@@H](CC(C)C)C(=O)N[C@@H](CCCNC(=N)N)C(=O)N[C@@H](Cc1c[nH]cn1)C(=O)N[C@@H](CO)C(=O)N[C@@H](CO)C(=O)N[C@@H](CC(N)=O)C(=O)N1CCC[C@H]1C(=O)N[C@@H](Cc1ccccc1)C(=O)NCC(=O)N[C@@H](C)C(=O)N1CCC[C@H]1C(=O)N[C@@H](CC(C)C)C(=O)N[C@@H](CO)C(=O)N[C@@H](CO)C(=O)N[C@H](C(=O)N[C@@H](CC(N)=O)C(=O)N[C@H](C(=O)NCC(=O)N[C@@H](CO)C(=O)N[C@@H](CC(=O)O)C(=O)N[C@H](C(=O)N[C@@H](Cc1ccc(O)cc1)C(N)=O)[C@@H](C)O)C(C)C)[C@@H](C)O [Peptide 7] (H-K([γGlu-γGlu-C20 diacid])CNTATCATQRLADFLRHSSNPFGAPLSSTNVGSDTY-NH2; disulfide 2-7)
2 |  | 5.09 | 14 | 24 | 5.13 |  | CC[C@H](C)[C@H](NC(=O)[C@@H]1CCCN1C(=O)CNC(=O)[C@H](Cc1ccccc1)NC(=O)[C@H](CC(N)=O)NC(=O)[C@@H]1CCCN1C(=O)[C@H](CO)NC(=O)[C@H](CO)NC(=O)[C@H](Cc1c[nH]cn1)NC(=O)[C@H](CCCNC(=N)N)NC(=O)[C@H](CC(C)C)NC(=O)[C@H](Cc1ccccc1)NC(=O)[C@H](CC(=O)O)NC(=O)[C@H](C)NC(=O)[C@H](CC(C)C)NC(=O)[C@H](CCCNC(=N)N)NC(=O)[C@H](CCC(N)=O)NC(=O)[C@@H](NC(=O)[C@H](C)NC(=O)[C@@H]1CSSC[C@H](NC(=O)[C@@H](N)CCCCNC(=O)CC[C@H](NC(=O)CC[C@H](NC(=O)CCCCCCCCCCCCCCCCCCC(=O)O)C(=O)O)C(=O)O)C(=O)N[C@@H](CC(N)=O)C(=O)N[C@@H]([C@@H](C)O)C(=O)N[C@@H](C)C(=O)N[C@@H]([C@@H](C)O)C(=O)N1)[C@@H](C)O)C(=O)N[C@@H](CC(C)C)C(=O)N[C@@H](CO)C(=O)N[C@@H](CO)C(=O)N[C@H](C(=O)N[C@@H](CC(N)=O)C(=O)N[C@H](C(=O)NCC(=O)N[C@@H](CO)C(=O)N[C@@H](CC(=O)O)C(=O)N[C@H](C(=O)N[C@@H](Cc1ccc(O)cc1)C(N)=O)[C@@H](C)O)C(C)C)[C@@H](C)O [Peptide 3] (H-K([γGlu-γGlu-C20 diacid])CNTATCATQRLADFLRHSSPNFGPILSSTNVGSDTY-NH2; disulfide 2-7)
3 | 8.94 |  | 90 |  |  | 2.7 | CC[C@H](C)[C@H](NC(=O)[C@H](C)NC(=O)CNC(=O)[C@H](Cc1ccccc1)NC(=O)[C@H](CC(N)=O)NC(=O)[C@@H]1CCCN1C(=O)[C@H](CO)NC(=O)[C@H](CO)NC(=O)[C@H](Cc1c[nH]cn1)NC(=O)[C@H](CCCNC(=N)N)NC(=O)[C@H](CC(C)C)NC(=O)[C@H](Cc1ccccc1)NC(=O)[C@H](CC(N)=O)NC(=O)[C@H](C)NC(=O)[C@H](CC(C)C)NC(=O)[C@H](CCCNC(=N)N)NC(=O)[C@H](CCC(N)=O)NC(=O)[C@@H](NC(=O)[C@H](C)NC(=O)[C@@H]1CSSC[C@H](NC(=O)[C@H](CCCCN)NC(=O)COCCOCCNC(=O)COCCOCCNC(=O)CC[C@H](NC(=O)CCCCCCCCCCCCCCCCCCC(=O)O)C(=O)O)C(=O)N[C@@H](CC(N)=O)C(=O)N[C@@H]([C@@H](C)O)C(=O)N[C@@H](C)C(=O)N[C@@H]([C@@H](C)O)C(=O)N1)[C@@H](C)O)C(=O)N1CCC[C@H]1C(=O)N[C@@H](CO)C(=O)N[C@@H](CO)C(=O)N[C@H](C(=O)N[C@@H](CC(N)=O)C(=O)N[C@H](C(=O)NCC(=O)N[C@@H](CO)C(=O)N[C@@H](CC(N)=O)C(=O)N[C@H](C(=O)N[C@@H](Cc1ccc(O)cc1)C(N)=O)[C@@H](C)O)C(C)C)[C@@H](C)O [Peptide 10]
4 |  |  | 11 |  |  | 3.9 | CC[C@H](C)[C@H](NC(=O)[C@H](C)NC(=O)CNC(=O)[C@H](Cc1ccccc1)NC(=O)[C@H](CC(N)=O)NC(=O)[C@@H]1CCCN1C(=O)[C@H](CO)NC(=O)[C@H](CO)NC(=O)[C@H](Cc1c[nH]cn1)NC(=O)[C@H](CCCNC(=N)N)NC(=O)[C@H](CC(C)C)NC(=O)[C@H](Cc1ccccc1)NC(=O)[C@H](CCC(=O)O)NC(=O)[C@H](C)NC(=O)[C@H](CC(C)C)NC(=O)[C@H](CCCNC(=N)N)NC(=O)[C@H](CCC(N)=O)NC(=O)[C@@H](NC(=O)[C@H](C)NC(=O)[C@@H]1CSSC[C@H](NC(=O)[C@H](CCCCN)NC(=O)CC[C@H](NC(=O)CCCCCCCCCCCCCCCCCCC(=O)O)C(=O)O)C(=O)N[C@@H](CC(N)=O)C(=O)N[C@@H]([C@@H](C)O)C(=O)N[C@@H](C)C(=O)N[C@@H]([C@@H](C)O)C(=O)N1)[C@@H](C)O)C(=O)N1CCC[C@H]1C(=O)N[C@@H](CO)C(=O)N[C@@H](CO)C(=O)N[C@H](C(=O)N[C@@H](CC(N)=O)C(=O)N[C@H](C(=O)NCC(=O)N1CCC[C@H]1C(=O)N[C@@H](CC(N)=O)C(=O)N[C@H](C(=O)N[C@@H](Cc1ccc(O)cc1)C(N)=O)[C@@H](C)O)C(C)C)[C@@H](C)O [Peptide 12] ({C20 diacid-γGlu}-KCNTATCATQRLAEFLRHSSPNFGAIPSSTNVGPNTY-NH2; disulfide 2-7)
